In patent US20240293441A1, “NEW THERAPEUTIC USE OF TYPE 2 IODOTHYRONINE DEIODINASE (D2) INHIBITORS” (MATERIAS S.R.I, priority 2021, published 2024):

Assays:
[1] = tested on: denervated mice; assay: Denervation (sciatic nerve transection) muscle wasting mouse model with oral amiodarone; assay type: in vivo
Method: Animals were anesthetized by a ketaminexylazine cocktail and a small incision ([…]) was made in the left tight skin. The sciatic nerve was exposed with the help of a small surgical hook and then cut before the separation of sciatic nerve branches. A small (2-5 mm) nerve section was removed to prevent re-innervation. Denervation was performed unilaterally, using the contralateral hindlimb as a negative control. Tissues were collected 2, 6, 12 or 15 days after denervation surgery.
In denervation+/−Amiodarone experiments, mice were treated for 13 days with Amiodarone and were sacrificed 5 days post induced-denervation (from day −7 up day+5 upon denervation).
(§1) Mice (C57BL6 mice) were treated with 0.45 mg/ml Amiodarone (Sigma, A8423, St. Louis, MO, USA) (Bagchiet al., Circulation Research 1987; 60:621-625; Lee et al., Oncotarget, 2015; 6(40): 42976-42987) in drinking water ad libitum starting 1 week before the induced-denervation or cachexia, until sacrifice.
(§2) Preparation of amiodarone: 45 mg dissolved in 1 ml of water for 10 minutes at 80° C.
In denervation mice models, mice were treated with oral amiodarone for 13 days (from day −7 up day+5 upon denervation).

[2] = tested on: DysE17 flies; assay: Climbing assay (negative geotaxis) in dystrophic Drosophila fed amiodarone; assay type: in vivo, Drosophila melanogaster
Description: The genetic loss-of-function homozygous Drosophila mutant for dystrophin (dys), DysE17 (hiips://flybase.org/reports/FBal0241311.html) was employed as a Duchenne muscular dystrophy model, which carries a point mutation on chromosome 3 (location: 92A10, 3R:19,590,458 . . . 19,590,458) causing a nucleotide change C19590458T and consequently the amino acid change Q2807term|Dys-PA. This is a termination codon determining full-length dys protein to be abnormally shortened. As control, the wild-type Oregon-R strain was used.
The adult wild-type animals and mutant fruit flies were treated with amiodarone at increasing concentrations, supplemented in the food for 30 days.
Eclosed Oregon-R and homozygous DysE17 Drosophila (1-2 days of adult age) were placed in vials (10-15 animals/vials) and reared on 4-5 ml of either the standard medium or medium supplemented with amiodarone at increasing doses (100 nM, 1 μM, 10 μM, 20 μM, and 50 μM). Food was replaced each 5 days. Amiodarone-supplemented diets were freshly prepared by mixing amiodarone with appropriate amounts of standard food just before the administration to animals. At least 3 vials per group were prepared within each experiment. Each experiment was repeated 3 or more times: in total, a minimum of 60 animals per experimental condition was analysed.
• Oregon-R receiving vehicle (DMSO 1:1000); • DysE17 flies receiving vehicle (DMSO 1:1000); • DysE17 flies receiving 100 nM amiodarone; • DysE17 flies receiving 1 μM amiodarone; • DysE17 flies receiving 10 μM amiodarone; • DysE17 flies receiving 20 μM amiodarone; • DysE17 flies receiving 50 μM amiodarone.
Flies were treated for 30 days (treatments ended when animals reached 30 days of adult age), with food renewal each 5 days.
Geotaxis was assessed using a climbing assay (negative geotaxis reflex in opposition to the Earth's gravity). A horizontal line was drawn 15 cm above the bottom of the vial. After a 10 minutes rest period, the flies were tapped to the bottom of the vials: all flies were forced to start climbing (vertical walking). The number of flies that climbed up to the 15 cm mark after 60 seconds was recorded as the percentage success rate. A camera recorded fly movement during the experiment. Each trial was performed three times, at one-minute intervals, and the results averaged. Climbing performance was assessed each 5 days starting from day 1-2 of adult age (just after eclosion) and ending at 30 days.
For the validation study, the climbing efficiency and muscle structure of adult wild-type animals and DysE17 mutants were analyzed after food supplementation with amiodarone at increasing concentrations for 0-30 days (geotaxis assay).

[3] = tested on: C26-injected mice; assay: C26 tumor-induced cancer cachexia mouse model with oral amiodarone; assay type: in vivo
Method: Murine colon 26 adenocarcinoma cells (C26) were cultured in DMEM containing 10% fetal bovine serum, 100 U/ml penicillin, and 100 μg/ml streptomycin. For in vivo inoculation, a single suspension of 7×10^6 cells in 100 μl of physiological saline was injected subcutaneously into the right flank of the BALB/c mice. The same volume of physiological saline was injected into the control groups.
In cachexia+/−Amiodarone experiments, mice were treated for 18 days with Amiodarone and were sacrificed 7 days post induced-cachexia. Amiodarone was given from […] (day 1 is the day of cells injection).
as §1, §2
In tumor-induced cachexia mice models, mice were treated with oral amiodarone for 18 days (−7/+11 relative to C26 injection) (FIG. 10A). Matched group of amiodarone-treated and control mice were injected with C26 cells, and muscle wasting was monitored to different days following injection.

[4] = tested on: pp6 cells; assay: TNFα-induced cell death (PARP immunoblot) in muscle cells with or without rT3; assay type: cell-based, mouse; conditions: TNFα 24 h; rT3 30 nM
Method: Primary muscle cultures (pp6) were isolated as described (Qu et al., 1998 J Cell Biol 142(5): 1257-1267) from the indicated mouse lines. Immortalized myoblasts (C2C12) were obtained from ATCC. Proliferating cells were cultured in 20% Fetal Bovine Serum Dulbecco's modified Eagle's medium at 37° C. with penicillin/streptomycin. Transient transfections were performed using Lipofectamine 2000 (Life Technologies) according to the manufacturer's instructions. Anti-MyoD (sc-304) and tubulin (sc-8035) antibodies were purchased from Santa Cruz Biotechnology. Anti-Pax7 antibody were from Developmental Studies Hybridoma Bank. Anti-PARP was from Cell Signaling Technology.
Total protein extracts from cells and tissues were run on a 10% sodium dodecyl sulfate-polyacrylamide gel electrophoresis gel and transferred to an Immobilon-P transfer membrane (Millipore, Billerica, MA). The membrane was then blocked with 5% nonfat dry milk in phosphate buffered saline, probed with the primary antibody, washed and incubated with horseradish peroxidase-conjugated donkey anti-rabbit or mouse immunoglobulin G secondary antibody (1:3000), and detected by chemiluminescence (Millipore). After extensive washing, the membrane was incubated with antitubulin-specific or ERK antibody (1:10,000; sc-8035, Santa Cruz, Dallas, TX) as loading control.
In vitro: Pp6 or C2C12 cells were treated with rT3 (30 nM) […]

[5] = tested on: mice with full-thickness skin wounds; assay: Skin wound healing in rT3-treated mice; assay type: in vivo, mouse
Method: The back fur of mice was shaved and the skin was cleaned with 70% alcohol. The dorsal skin was pulled using forceps and two 8-mm full-thickness skin wounds were created along the midline using a sterile 8 mm circular biopsy punch by pressing through both layers of the skin pull. Skin wound healing was measured every 2-3 days by anesthetizing the animals and imaging the wounded area.
Excisional, full-thickness skin wounds were aseptically made on the dorsal skin by picking up a fold skin at the midline and using a sterile, disposable biopsy punch with a diameter of 8 mm to punch through the two layers of skin. In this manner, two wounds were made on each side of the midline at the same time. Each wound site was digitally photographed using the Nikon FX-35A at the indicated time intervals, and wound areas were determined on photographs using CellF*. Changes in wound areas were expressed as the percentage of the initial wound areas.
(§3) In vivo: mice (C56BL6 mice) were treated systemically with an i.v. injection of 100 μl of 30 ng/μl rT3 (Sigma Aldrich) or PBS vehicle control to consecutive 4 days.
In a similar setting, the present inventors also tested whether D2 inhibition positively affected wound regeneration in skin.

[6] = tested on: mice with CTX-injured tibialis anterior (TA) muscle; assay: Muscle regeneration after cardiotoxin (CTX) injury in rT3-treated mice; assay type: in vivo, mouse
Method: Animals were anesthetized by a ketaminexylazine cocktail, and 12,5 μl of 60 μg/ml CTX (Naja mossambica mossambica, Sigma-Aldrich) was injected into and along the length of the right tibialis anterior (TA) (Yan, 2003 J Biol Chem 278(10): 8826-8836) and 25 μl into gastrocnemius muscle. CTX was injected on different day from Tam.
The tibialis anterior (TA) muscles were dissected and fixed in isopentane in liquid nitrogen, and sliced into 7 μm sections. The cross-sectional area was analyzed and quantified using CellF*Olympus Imaging Software.
Dissected muscles were snap frozen in liquid nitrogen-cooled isopentane, sectioned (7 μm thick) and stained. For immunofluorescent staining, cells or section were fixed with 4% formaldehyde (PFA) and permeabilized in 0.1% Triton X-100, then blocked with 0.5% goat serum and incubated with primary antibody. Alexa Fluor™ 594/647-conjugated secondary antibody was used. Images were acquired with an IX51 Olympus microscope and the Cell*F software. For hematoxylin/eosin staining (H&E), sections were fixed for 15 min and placed in hematoxylin for 5 min followed washed, and 5 min in Eosin.
as §3
To therapeutically exploit the capacity of D2-depletion to activate stem cells and accelerate muscle tissue repair, mice were treated with oral reverse triiodothyronine (rT3, a specific D2-inhibitor) for 7 days (−5/+2 relative to CTX injury) (FIG. 7A).

[7] = gastrocnemius, oral amiodarone 13 days (day −7 to +5 upon denervation), vs control
[8] = TA muscle, 11 days after C26 cells injection, vs control
[9] = 7 days post-CTX, oral rT3 for 7 days (−5/+2 relative to CTX injury), vs control

CCCCc1oc2ccccc2c1C(=O)c1cc(I)c(OCCN(CC)CC)c(I)c1 [Amiodarone (AMIO), Amiodarone]
muscle wasting (gastrocnemius muscle mass) ([1]; after denervation, oral amiodarone 13 days): preserved from massive muscle wasting
Atrogin-1 mRNA expression [1, 7]: potently down-regulated
MuRF-1 mRNA expression [1, 7]: potently down-regulated
functional deficits vs untreated Dys animals ([2]; after 25-30 days of treatment): the same functional deficits
damaged animals (climbing decay) ([2]; amiodarone 10 μM for 15 days, untreated Dys 35%): 18%
damaged animals (climbing decay) ([2]; amiodarone 10 μM for 20 days, untreated Dys 55%): 32%
most effective concentration on fly mobility ([2]; doses 100 nM to 50 μM in food, 30 days): 10 µM
muscle structure of functionally recovered muscles ([2]; dystrophic mutant flies, chronic amiodarone): still compromised at structural level
effect on climbing decay of dystrophic animals ([2]; higher concentrations, 20-50 μM): did not alter the climbing decay
effect on fly mobility ([2]; increasing doses from 100 nM to 10 μM): dose-dependent beneficial effect
effect on mobility at shorter times ([2]; treatment shorter than 15 days (10 days)): no effects
Atrogin-1 mRNA expression [3, 8]: potently down-regulated
MuRF-1 mRNA expression [3, 8]: potently down-regulated
survival ([3]; after C26 cells injection, control mice about 12.7 days): > 27 days
tumor weight ([3]; amiodarone-treated vs control mice, 11 days after C26 cells injection): no significant effects
muscle wasting (body, heart, TA and GC weight) ([3]; oral amiodarone for 18 days (−7/+11 relative to C26 injection), vs control): preserved from massive muscle wasting

N[C@@H](Cc1ccc(Oc2cc(I)c(O)c(I)c2)c(I)c1)C(=O)O [Reverse triiodothyronine (rT3), 3,3′5′-triiodothyronine]
TNFα-induced apoptosis [4]: protected from apoptosis
regrowth of hair in the shaved area ([5]; later time points following skin wounding (28 days post-injury)): more complete regrowth of hair
wound repair ([5]; rT3-treated mice vs control): more rapidly and efficiently than control
fiber size (cross-sectional area) [6, 9]: smaller than control
number of fibers (H&E) [6, 9]: increased number of fibers
fiber size (cross-sectional area) ([6]; 21 days after injury, rT3 for 7 days, vs control): larger fibers
Pax7+/EdU+ cells ([6]; TA sections, rT3 treated mice vs control): increased than control
